Results reported in patent US5432175A, “Pyridine and pyridine N-oxide derivatives of diaryl methyl piperidines or piperazines, and compositions and methods of use thereof” (Schering Corporation, priority 1993, dated 1995).

Experiments:
[1] = test system: PAF-induced platelet aggregation; experiment: Platelet Aggregation Assay (in vitro PAF antagonism, human platelet-rich plasma); type: cell-based; details: 37° C., PAF 1-5×10^-8 M
Experimental: Platelet Aggregation Assay
Platelet-activating factor (PAF) causes aggregation of platelets by a receptor-mediated mechanism. Therefore, PAF-induced platelet aggregation provides a simple and convenient assay to screen compounds for PAF antagonism.
Blood was centrifuged at 110×g for 15 min. and the supernatant platelet-rich plasma (PRP) carefully transferred into a polypropylene tube. Platelet-poor-plasma (PPP) was prepared by centrifuging PRP at 12,000×g for 2 min. PRP was used within 3 hr. of drawing the blood.
PAF was dissolved in chloroform:methanol (1:1, v/v) at a concentration of 2 mg/ml and stored at -70° C. An aliquot of this solution was transferred to a polypropylene tube and dried under a flow of nitrogen gas. […] The solution was sonicated for 5 min. This stock solution was further diluted to appropriate concentrations in Hepes-saline-BSA buffer. Collagen and adenosine diphosphate (ADP) were purchased as solutions. Test compounds were initially dissolved in dimethyl sulfoxide (DMSO) at a concentration of 50 mM and then further diluted in Hepes-saline-BSA buffer to achieve appropriate concentrations.
When an aggregating agent such as PAF is added to PRP, platelets aggregate. An aggregometer quantifies this aggregation by measuring and comparing light (infra-red) transmission through PPP and PRP. Aggregation assays were performed using a dual-channel aggregometer. PRP (0.45 ml) in aggregometer cuvettes was continually stirred (37° C.). Solutions (50 μL) of test compounds or vehicle were added to the PRP and, after incubation for 2 min., 10-15 μl aliquots of PAF solution were added to achieve a final concentration of 1-5×10^-8 M. In different experiments the aggregatory response was kept within a set limit by varying the concentration of PAF. Incubations were continued until the increase in light transmission reached a maximum (usually 2 min.). This increase in light transmission reflecting platelet aggregation is transmitted to a computer. The computer calculates the slope of transmission change, thus providing the rate of aggregation. Values for inhibition were calculated by comparing rates of aggregation obtained in the absence and the presence of the compound. For each experiment, a standard PAF antagonist such as 8-chloro-6,11-dihydro-11 -(1-acetyl-4-piperidylidene)-5H-benzo[5,6]cyclohepta[1,2-b]pyridine was used as a positive control. […]

PAF-induced bronchospasm = PAF-induced bronchospasm in guinea pigs (in vivo); design: species or system guinea pig (male Hartley); details: Cavia porcellus, read-out: Agonist Bronchospasm (in vivo) PAF % Inhibition; for inhibition in vivo at 3 mg/kg: oral, PAF 0.4 μg/kg i.v.
Experimental: (§1) B. In Vivo Studies: Agonist-Induced Responses
(§2) Spasmogen-Induced Bronchospasm in Guinea Pigs
(§3) Male Hartley guinea pigs (450-550 g) were obtained from Charles River Breeding Laboratories. The animals were fasted overnight and the following day were anesthetized with 0.9 ml/kg i.p. of dilaurethane (containing 0.1 g/ml diallylbarbituric acid, 0.4 g/ml ethylurea and 0.4 g/ml urethane). The left jugular vein was cannulated for the administration of compounds. The trachea was cannulated and the animals were ventilated by a rodent respirator at 55 strokes/min. with a stroke volume of 4 ml. A side arm to the tracheal cannula was connected to a pressure transducer to obtain a continuous measure of inflation pressure. Bronchoconstriction was measured as the percent increase in inflation pressure that peaked within 5 min. after challenge with spasmogen. […] Each animal was challenged with only a single spasmogen. The effect of a compound on the bronchospasm is expressed as a percent inhibition of the increase in inflation pressure compared to the increase in a control group. […] The first two compounds in TABLE II are known compounds and are included for comparison purposes.

[2] = test system: histamine-induced bronchospasm; experiment: Histamine-induced bronchospasm in guinea pigs (in vivo); design: species or system guinea pig (male Hartley); details: oral, histamine 10 ug/kg i.v.
Experimental: as §1, §2, §3

Row | IC50 [1] [µM] | SMILES | inhibition in vivo at 3 mg/kg (PAF-induced bronchospasm) [%] | Agonist Bronchospasm (in vivo) Histamine % Inhibition ([2]; dose 3 mg/kg) [%] | other results
1 | 12 | [O-][n+]1ccc(CN2CCN(C(c3ccc(Cl)cc3)c3nccs3)CC2)cc1 (centres unmarked) | – | – | –
2 | – | CCOC(=O)N1CCC(=C2c3ccc(Cl)cc3CCc3cccnc32)CC1 [reference compound] | – | – | inhibition in vivo at 10 mg/kg (PAF-induced bronchospasm; po): < 50%; Agonist Bronchospasm (in vivo) Histamine % Inhibition ([2]; dose 1 mg/kg): > 50%
3 | 0.61 | CC(=O)N1CCC(=C2c3ccc(Cl)cc3CCc3cccnc32)CC1 [reference compound] | 4 | 48 | –
4 | 0.5 | O=C(c1cc[n+]([O-])cc1)N1CCC(=C(c2ccc(Cl)cc2)c2cccs2)CC1 | – | – | –
5 | 0.5 | O=C(c1cc[n+]([O-])cc1)N1CCC(=C(c2ccc(Cl)cc2)c2ccccn2)CC1 | 100 | 0 | –
6 | 0.2 | O=C(c1cc[n+]([O-])cc1)N1CCN(C(c2ccc(Cl)cc2)c2cccs2)CC1 (centres unmarked) | 22 | – | –
7 | 1 | O=C(c1cc[n+]([O-])cc1)N1CCN(C(c2ccccc2)c2ccc(Cl)cc2)CC1 (centres unmarked) | 99 | 30 | –
8 | 12 | [O-][n+]1ccc(CN2CCC(=C(c3ccc(Cl)cc3)c3ccccn3)CC2)cc1 | 18 | 95 | –
9 | 20 | Cn1ccnc1C(=C1CCN(Cc2cc[n+]([O-])cc2)CC1)c1ccc(Cl)cc1 | – | – | –
10 | 1 | O=C(c1cc[n+]([O-])cc1)N1CCC(=C(c2ccc(Cl)cc2)c2nccs2)CC1 | – | – | –
11 | 2 | Cn1ccnc1C(=C1CCN(C(=O)c2cc[n+]([O-])cc2)CC1)c1ccc(Cl)cc1 | – | – | –
12 | 3 | O=C(c1cc[n+]([O-])cc1)N1CCC(=C(c2ccccc2)c2ccccc2)CC1 | 44 | 0 | –
13 | 35 | [O-][n+]1ccc(CN2CCC(=C(c3ccc(Cl)cc3)c3nccs3)CC2)cc1 | – | – | –
14 | 15 | [O-][n+]1ccc(CN2CCN(C(c3ccc(Cl)cc3)c3cccs3)CC2)cc1 (centres unmarked) | – | – | –
15 | 1 | O=C(c1cc[n+]([O-])cc1)N1CCN(C(c2ccc(Cl)cc2)c2nccs2)CC1 (centres unmarked) | 73 | – | Agonist Bronchospasm (in vivo) Histamine % Inhibition ([2]; dose 10 mg/kg): 25%
